Publication PMC5342526, “Identification of Bisindolylmaleimide IX as a potential agent to treat drug-resistant BCR-ABL positive leukemia” (Oncotarget, 2016)
Where two headings read alike, the source gives them in different places.

Columns and labels:
DNA topoisomerase = assay: DNA relaxation assay with extracts of treated MEFs; assay type: cell-based, mouse; details: supercoiled pBluescript plasmid DNA as template
Description: Bisindolylmaleimide IX and other derivatives were added to MEF cultures and 24 hrs later, the cells were washed with PBS and harvested in TNE buffer. The control and Bisindolylmaleimide IX-treated cell extracts were directly used to test the topoisomerase activity using a kit from Topogen (Port Orange, USA) following the manufacturer's protocol, or pBluescript DNA as a template. The in vitro incubation lasted 30 min at room temperature. A 2% agarose gel was run to analyze DNA unwinding (Topogen) or 0.8% gel for pBluescript DNA.

Jak2 = Jak2 (Homo sapiens, UniProt O60674); assay: Z'-LYTE in vitro kinase assay; assay type: biochemical; details: mean ±SEM
BCR-ABL in BaF3 cells = assay: BCR-ABL activation in cells, anti-phospho-Tyr western blot; details: 4 hrs
Description: BaF3 cells infected with empty retrovirus or retrovirus expressing BCR-ABL were treated with different doses of Bisindolylmaleimide IX for 4 hrs. Activation and expression of BCR-ABL were determined by western blot. Activation of BCR-ABL was determined by anti-phospho-Tyr antibodies.
Cells were lysed in TNEN buffer (50 mM Tris, 150 mM NaCl, 5 mM EDTA, 0.5% NP-40, and 0.1% Triton X-100) supplemented with 1 mM NaF, Na2VO3, 1 mM PMSF, and 1 μg/ml of aprotonin, leupeptin, and pepstatin A. Protein concentrations were determined using a Bio-Rad assay. Proteins were resolved by SDS-PAGE and transferred to polyvinylidene difluoride membranes (Millipore). […] Antibodies against p-Tyr were from Merck Millipore Corporation.

[1] = Precipitation in cell cultures; assay type: physicochemical
MEFs and HCT116 cells = assay: Activation of Atm and Chk2 (DNA damage response), western blot; assay type: cell-based; details: 4 hrs, phosphorylation of Atm and Chk2
[2] = system: tumors derived from T315I BCR-ABL-expressing BaF3 cells; assay: Subcutaneous solid tumor model in nude mice; assay type: in vivo, mouse; details: 4 mg/kg
Description: (§1) For solid tumor models, the mice were injected with 4 mg / kg of Bisindolylmaleimide IX or solvent. The length (L) and width (W) of the tumor were measured by a digital caliper and expressed as tumor volume (0.5 L×W^2, mm^3). The body weight and the lifespan of the mice with intravenous injection of BaF3 cells were monitored every day. For B-Raf knockdown, lentivirus-mediated expressing shRNA against B-Raf was used.

[3] = system: tumors derived from BCR-ABL-expressing BaF3 cells; assay: Subcutaneous solid tumor model in nude mice; assay type: in vivo, mouse; details: 4 mg/kg
Description: as §1

p53 in primary MEFs = assay: p53 protein level by western blot (screen)
Description: Cells were lysed in TNEN buffer (50 mM Tris, 150 mM NaCl, 5 mM EDTA, 0.5% NP-40, and 0.1% Triton X-100) supplemented with 1 mM NaF, Na2VO3, 1 mM PMSF, and 1 μg/ml of aprotonin, leupeptin, and pepstatin A. Protein concentrations were determined using a Bio-Rad assay. Proteins were resolved by SDS-PAGE and transferred to polyvinylidene difluoride membranes (Millipore).

K562 cells = assay: Wst-1 cell survival assay; details: for IC50: Homo sapiens, read-out: IC50, cell survival
Description: (§2) We then evaluated the cytotoxic effect of Bisindolylmaleimide IX in MEFs and HCT116 cells. Different doses of Bisindolylmaleimide IX were applied to the cell cultures and cell survival rates and IC50 were determined with Wst-1 assay.
(§3) To measure cell survival rates after Bisindolylmaleimide IX treatment, cells were plated at 1×10^4 in 96 well plates and cultured for overnight, which were then treated with Bisindolylmaleimide IX for 48 hrs. Cell proliferation reagent WST-1 (Roche) was added to each well and was further incubated for 4 hrs at 37°C. The absorbance was measured against a control using microplate reader at 440 nm. The reference wavelength was 630 nm.

primary MEFs = assay: Wst-1 cell survival assay
Description: as §2, §3

[4] = system: Erk in BCR-ABL-expressing BaF3 cells; assay: Erk activation, western blot; assay type: cell-based, murine; details: BCR-ABL-expressing BaF3 cells but not control cells, 4 hrs
Description: Activation and expression of Erk, Mek1, and Raf were determined by western blot. B. Inhibition of Erk decreased the cell survival rates in BaF3 cells expressing BCR-ABL compared to control cells. […] C. […] N=3. Right panel: Western blot results showing that B-Raf was knocked down in these cells.

[5] = system: tumors derived from HCT116; assay: HCT116 carcinoma xenograft in nude mice; assay type: in vivo, mouse; details: 10 mg/kg for 7 days
Description: Male BALB/cASlac-nude mice (4-week-old) were purchased from Shanghai Slac Laboratory Animal C. LTD. The mice were kept in the SPF mouse facility for 1 week before being inoculated with HCT116 cells. HCT116 cells were harvested by trypsinization, counted and resuspended in PBS at the concentration of 5×10^7/ml. We injected subcutaneously 3×10^6 cells to BALB/cASlac nude mice's back. After 2 weeks, the mice were divided into 3 groups (6 mice per group) and were treated with 5-Iodotubercidin (Itu), Bisindolylmaleimide IX or solvent (PBS). The mice were weighed and the size of tumor measured. The length (L) and width (W) of the tumor were measured with a digital caliper and expressed as tumor volume (0.5L×W^2, mm^3).

HCT116 cells = assay: Cell cycle analysis by FACS; assay type: cell-based, human; details: HCT116, 24 hrs
Description: Cells were seeded on 35-mm dishes and cultured for 24 hrs, reaching 60–70% confluency. The cells were treated with different concentrations of Bisindolylmaleimide IX for 24 or 48 hrs, harvested by trypsinization, resuspended in 200 μl PBS, and fixed in 100% ethanol overnight at 4°C. The fixed cells were pelleted by centrifugation, resuspended in 800 μl PBS containing ribonuclease A (100 μg/ml) and incubated for 30 min at 37°C. Then 10 μl propidium iodide (PI, 4 mg/ml PBS) were added to the samples, which were assessed on a FACSCalibur flow cytometer using Cell Quest software (BD Bioscience).

Vector BaF3 cells = assay: Wst-1 cell survival assay; assay type: cell-based, murine; details: Mus musculus, Vector BaF3, 24 hrs
Source text: The reference wavelength was 630 nm.

BCR-ABL MEF cells = assay: Wst-1 cell survival assay; details: Mus musculus, 24 h, read-out: IC50, cell survival
Description: as §2, §3

p53 in HCT116 cells = assay: p53 protein level by western blot; assay type: cell-based, human; details: HCT116, 2.5 μM, time-dependent

Chain of Jak2 (O60674 whole entry, species assumed): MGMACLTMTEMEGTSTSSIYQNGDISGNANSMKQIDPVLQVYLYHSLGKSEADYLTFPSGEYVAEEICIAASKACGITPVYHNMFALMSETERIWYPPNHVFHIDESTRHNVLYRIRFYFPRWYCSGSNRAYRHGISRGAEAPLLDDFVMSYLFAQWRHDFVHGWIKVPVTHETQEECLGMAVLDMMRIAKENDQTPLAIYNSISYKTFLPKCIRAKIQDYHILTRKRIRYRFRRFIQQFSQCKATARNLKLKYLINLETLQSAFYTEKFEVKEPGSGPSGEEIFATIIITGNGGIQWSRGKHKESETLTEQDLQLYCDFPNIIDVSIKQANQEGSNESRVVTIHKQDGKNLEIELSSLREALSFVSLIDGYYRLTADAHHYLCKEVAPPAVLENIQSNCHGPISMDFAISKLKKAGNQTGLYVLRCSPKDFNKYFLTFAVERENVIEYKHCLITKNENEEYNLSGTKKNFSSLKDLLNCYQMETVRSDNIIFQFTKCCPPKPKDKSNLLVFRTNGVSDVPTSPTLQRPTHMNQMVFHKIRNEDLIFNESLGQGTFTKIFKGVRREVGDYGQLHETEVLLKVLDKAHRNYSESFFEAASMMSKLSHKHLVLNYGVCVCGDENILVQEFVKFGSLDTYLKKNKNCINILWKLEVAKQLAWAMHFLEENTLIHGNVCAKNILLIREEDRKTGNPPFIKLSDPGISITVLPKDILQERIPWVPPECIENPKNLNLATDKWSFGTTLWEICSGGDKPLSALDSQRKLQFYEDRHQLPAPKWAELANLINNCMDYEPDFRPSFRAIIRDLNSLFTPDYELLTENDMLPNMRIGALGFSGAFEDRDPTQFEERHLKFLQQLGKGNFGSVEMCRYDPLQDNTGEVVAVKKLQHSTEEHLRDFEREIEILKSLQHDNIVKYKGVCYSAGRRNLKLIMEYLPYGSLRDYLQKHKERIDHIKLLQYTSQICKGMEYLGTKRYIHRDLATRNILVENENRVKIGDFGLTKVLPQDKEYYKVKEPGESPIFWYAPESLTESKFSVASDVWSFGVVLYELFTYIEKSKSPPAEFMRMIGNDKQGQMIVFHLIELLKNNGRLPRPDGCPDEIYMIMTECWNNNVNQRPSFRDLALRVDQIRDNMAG

In the case of `CS(=O)(=O)O.Cn1cc(C2=C(c3cn(CCCSC(=N)N)c4ccccc34)C(=O)NC2=O)c2ccccc21` [Bisindolylmaleimide IX, 3-[1-[3-(Amidinothio)propyl]-3-indolyl]-4-(1-methyl-3-indolyl)-1H-pyrrole-2,5-dione methanesulfonate], the “DNA relaxation (topoisomerase) activity of extract from treated cells” value (DNA topoisomerase) is reported as “partially lost this activity”, the IC50 (Jak2) is reported as 9.68 ± 0.79 µM and the “inhibitory effect on BCR-ABL activity in vivo (in cells)” value (BCR-ABL in BaF3 cells) is reported as “negligible inhibitory effect”. The “concentrations at which the compound seemed to precipitate in cell cultures” value [1] was “greater than 10 μM”, the “lowest concentration able to activate the DNA damage response” value (MEFs and HCT116 cells) was 1.0 µM and the growth of tumors [2] was “significantly inhibited growth of tumors”. For the same molecule, the growth of tumors [3] was “significantly inhibited growth of the tumors”, the p53 protein up-regulation (p53 in primary MEFs) was “up-regulate p53 at the protein levels” and the IC50 (K562 cells; K562, 24 h) was 3.72 µM. The IC50 (K562 cells; K562, 48 h) was 3.48 µM, the “cytotoxicity (in words)” value (K562 cells; K562, Wst-1) was “highly sensitive” and the “cytotoxicity (in words)” value (primary MEFs; MEFs, compared to other genotoxic drugs such as Itu) was “modest cytotoxicity”. For the same molecule, the IC50 (primary MEFs; Mus musculus, 24 h, read-out: IC50, cell survival) was 3.83 µM, the Erk activation [4] was “inhibited Erk activation” and the “body weights of the mice” value [5] was “not affected”. For the same molecule, the tumor size [5] was “did not go down”, the cell cycle profile (HCT116 cells) was “increase in G2/M phase cells and a decrease in S phase cells” and the IC50 (Vector BaF3 cells) was > 8 µM. The IC50 (BCR-ABL MEF cells) was 3.46 µM and the p53 expression (p53 in HCT116 cells) was “induce p53 expression”.
